Measured values reported in patent publication US7544694B2, “Substituted diaza-spiro-[5.5]-undecane derivatives and their use as neurokinin antagonists” (Janssen Pharmaceutica N.V., priority 2004, dated 2009).

What was measured:
Format in all cases: cell-based
NK3 = biological target: T1, NK3 (Homo sapiens, UniProt P29371); assay: Signal transduction (ST), intracellular Ca++ (FLIPR), NK3; settings: antagonist, read-out: NK3 pIC50 (converted)
T1 sequence (P29371 1-465): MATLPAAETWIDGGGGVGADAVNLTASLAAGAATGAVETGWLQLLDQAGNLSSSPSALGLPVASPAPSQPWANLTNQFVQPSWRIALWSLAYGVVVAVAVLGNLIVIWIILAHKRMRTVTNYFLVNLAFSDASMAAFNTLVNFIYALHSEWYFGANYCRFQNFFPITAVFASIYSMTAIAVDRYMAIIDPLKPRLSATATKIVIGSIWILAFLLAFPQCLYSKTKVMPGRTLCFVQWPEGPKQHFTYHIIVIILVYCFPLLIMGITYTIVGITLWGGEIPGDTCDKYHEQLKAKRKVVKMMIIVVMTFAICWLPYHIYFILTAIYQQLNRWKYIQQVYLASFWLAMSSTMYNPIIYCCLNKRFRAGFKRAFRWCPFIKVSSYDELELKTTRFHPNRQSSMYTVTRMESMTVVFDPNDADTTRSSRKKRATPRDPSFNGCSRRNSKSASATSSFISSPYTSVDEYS
Experimental: [The source words this procedure for another target and reports this target under the same test.] (§1) This test evaluates in vitro functional NK1 antagonistic activity. For the measurements of intracellular Ca^++ concentrations the cells were grown on 96-well (black wall/transparent bottom) plates from Costar for 2 days until they reached confluence. The cells were loaded with 2 μM Fluo3 in DMEM containing 0.1% BSA and 2.5 mM probenecid for 1 h at 37° C. They were washed 3× with a Krebs buffer (140 mM NaCl, 1 mM MgCl2×6H2O, 5 mM KCl, 10 mM glucose, 5 mM HEPES; 1.25 mM CaCl2; pH 7.4) containing 2.5 mM probenecid and 0.1% BSA (Ca^++-buffer). The cells were preincubated with a concentration range of antagonists for 20 min at RT and Ca^++-signals after addition of the agonists were measured in a Fluorescence Image Plate Reader (FLIPR from Molecular Devices, Crawley, England). The peak of the Ca^++-transient was considered as the relevant signal and the mean values of corresponding wells were analysed as described below.
(§2) The sigmoidal dose response curves were analysed by computerised curve-fitting, using the GraphPad Program. The EC50-value of a compound is the effective dose showing 50% of maximal effect. For mean curves the response to the agonist with the highest potency was normalised to 100%. For antagonist responses the IC50-value was calculated using non-linear regression.
(§3) The last columns indicate—without being limited thereto—for which action the compounds might be most suitable. Of course, since for some neurokinin receptors no data was determined, it is obvious that these compounds might be attributed to another suitable use.

NK2 = biological target: T2, NK2 (Homo sapiens, UniProt P21452); assay: Signal transduction (ST), intracellular Ca++ (FLIPR), NK2; settings: antagonist, read-out: NK2 pIC50 (converted)
T2 sequence (P21452 1-398): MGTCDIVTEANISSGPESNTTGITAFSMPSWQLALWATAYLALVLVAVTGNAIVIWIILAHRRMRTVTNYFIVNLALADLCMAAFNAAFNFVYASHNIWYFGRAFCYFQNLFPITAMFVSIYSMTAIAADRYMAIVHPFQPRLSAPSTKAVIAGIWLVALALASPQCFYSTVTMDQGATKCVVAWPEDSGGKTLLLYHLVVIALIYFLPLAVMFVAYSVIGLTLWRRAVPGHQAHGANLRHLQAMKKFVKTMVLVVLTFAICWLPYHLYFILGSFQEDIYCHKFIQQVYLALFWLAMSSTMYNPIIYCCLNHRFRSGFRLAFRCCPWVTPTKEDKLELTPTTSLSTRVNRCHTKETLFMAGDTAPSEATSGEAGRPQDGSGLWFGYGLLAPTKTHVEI
Experimental: [The source words this procedure for another target and reports this target under the same test.] as §1, §2, §3

NK1 = NK1 (Homo sapiens, UniProt P25103); assay: Signal transduction (ST), intracellular Ca++ (FLIPR), functional NK1 antagonistic activity; settings: antagonist, read-out: NK1 pIC50 (converted)
Chain of NK1 (P25103 whole entry): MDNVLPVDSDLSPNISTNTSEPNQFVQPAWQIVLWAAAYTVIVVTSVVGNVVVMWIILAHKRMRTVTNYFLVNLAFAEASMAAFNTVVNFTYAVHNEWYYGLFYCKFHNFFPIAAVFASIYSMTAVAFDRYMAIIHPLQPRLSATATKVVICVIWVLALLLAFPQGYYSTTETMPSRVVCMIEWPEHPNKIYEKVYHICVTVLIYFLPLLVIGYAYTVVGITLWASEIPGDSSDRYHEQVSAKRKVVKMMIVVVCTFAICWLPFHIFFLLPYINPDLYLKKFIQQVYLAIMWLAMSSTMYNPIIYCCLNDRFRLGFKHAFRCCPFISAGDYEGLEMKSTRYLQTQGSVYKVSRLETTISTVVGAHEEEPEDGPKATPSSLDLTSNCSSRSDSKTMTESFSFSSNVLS
Experimental: as §1, §2, §3

| IC50 (NK3) | IC50 (NK2) | IC50 (NK1) | Structure (SMILES) |
| --- | --- | --- | --- |
| > 10 µM | > 10 µM | 115 nM | CC(C)(C)C(=O)N1CCC2(CC1)CCN([C@H]1CCN(C(=O)c3cc(C(F)(F)F)cc(C(F)(F)F)c3)[C@H](Cc3ccccc3)C1)CC2 [Compound 7] |
| 4.47 µM | 2.82 µM | 43.7 nM | CC(C)(C)C(=O)N1CCC2(CC1)CCN([C@@H]1CCN(C(=O)c3cc(C(F)(F)F)cc(C(F)(F)F)c3)[C@H](Cc3ccccc3)C1)CC2 [Compound 8] |
| – | 5.37 µM | 105 nM | CC1(C(=O)N2CCC3(CC2)CCN([C@H]2CCN(C(=O)c4cc(C(F)(F)F)cc(C(F)(F)F)c4)[C@H](Cc4ccccc4)C2)CC3)CC1 [Compound 11] |
| 7.94 µM | 3.16 µM | 129 nM | CC1CC1C(=O)N1CCC2(CC1)CCN([C@H]1CCN(C(=O)c3cc(C(F)(F)F)cc(C(F)(F)F)c3)[C@H](Cc3ccccc3)C1)CC2 (stereo partly shown) [Compound 15] |
| 2.14 µM | 2.34 µM | 16.6 nM | O=C(C1CCOC1)N1CCC2(CC1)CCN([C@H]1CCN(C(=O)c3cc(C(F)(F)F)cc(C(F)(F)F)c3)[C@H](Cc3ccccc3)C1)CC2 (stereo partly shown) [Compound 21] |
| 1.32 µM | > 10 µM | 112 nM | O=C(c1ccoc1)N1CCC2(CC1)CCN([C@H]1CCN(C(=O)c3cc(C(F)(F)F)cc(C(F)(F)F)c3)[C@H](Cc3ccccc3)C1)CC2 [Compound 24] |
| > 10 µM | 3.98 µM | 83.2 nM | Cc1ccoc1C(=O)N1CCC2(CC1)CCN([C@H]1CCN(C(=O)c3cc(C(F)(F)F)cc(C(F)(F)F)c3)[C@H](Cc3ccccc3)C1)CC2 [Compound 25] |
| 3.31 µM | 4.47 µM | 20.4 nM | Cc1occc1C(=O)N1CCC2(CC1)CCN([C@H]1CCN(C(=O)c3cc(C(F)(F)F)cc(C(F)(F)F)c3)[C@H](Cc3ccccc3)C1)CC2 [Compound 27] |
| > 10 µM | 7.94 µM | 692 nM | Cc1ccc(C(=O)N2CCC3(CC2)CCN([C@H]2CCN(C(=O)c4cc(C(F)(F)F)cc(C(F)(F)F)c4)[C@H](Cc4ccccc4)C2)CC3)s1 [Compound 30] |
| 6.61 µM | 3.16 µM | 75.9 nM | Cc1ccsc1C(=O)N1CCC2(CC1)CCN([C@H]1CCN(C(=O)c3cc(C(F)(F)F)cc(C(F)(F)F)c3)[C@H](Cc3ccccc3)C1)CC2 [Compound 32] |
| > 10 µM | > 10 µM | 200 nM | Cn1cccc1C(=O)N1CCC2(CC1)CCN([C@H]1CCN(C(=O)c3cc(C(F)(F)F)cc(C(F)(F)F)c3)[C@H](Cc3ccccc3)C1)CC2 [Compound 33] |
| > 10 µM | 6.17 µM | 191 nM | Cn1cnc(C(=O)N2CCC3(CC2)CCN([C@H]2CCN(C(=O)c4cc(C(F)(F)F)cc(C(F)(F)F)c4)[C@H](Cc4ccccc4)C2)CC3)c1 [Compound 34] |
| > 10 µM | > 10 µM | 19.1 nM | Cc1noc(C)c1C(=O)N1CCC2(CC1)CCN([C@H]1CCN(C(=O)c3cc(C(F)(F)F)cc(C(F)(F)F)c3)[C@H](Cc3ccccc3)C1)CC2 [Compound 35] |
| > 10 µM | 4.27 µM | 28.2 nM | Cc1nnsc1C(=O)N1CCC2(CC1)CCN([C@H]1CCN(C(=O)c3cc(C(F)(F)F)cc(C(F)(F)F)c3)[C@H](Cc3ccccc3)C1)CC2 [Compound 36] |
| > 10 µM | 8.51 µM | 148 nM | O=C(C1=CCCCC1)N1CCC2(CC1)CCN([C@H]1CCN(C(=O)c3cc(C(F)(F)F)cc(C(F)(F)F)c3)[C@H](Cc3ccccc3)C1)CC2 [Compound 41] |
| 9.33 µM | 8.91 µM | 61.7 nM | O=C(c1ccccc1Cl)N1CCC2(CC1)CCN([C@H]1CCN(C(=O)c3cc(C(F)(F)F)cc(C(F)(F)F)c3)[C@H](Cc3ccccc3)C1)CC2 [Compound 42] |
| > 10 µM | 3.63 µM | 105 nM | N#Cc1ccc(C(=O)N2CCC3(CC2)CCN([C@H]2CCN(C(=O)c4cc(C(F)(F)F)cc(C(F)(F)F)c4)[C@H](Cc4ccccc4)C2)CC3)cc1 [Compound 43] |
| 1.51 µM | – | 30.9 nM | N#Cc1ccccc1S(=O)(=O)N1CCC2(CCN([C@H]3CCN(C(=O)c4cc(C(F)(F)F)cc(C(F)(F)F)c4)[C@H](Cc4ccccc4)C3)CC2)CC1 [Compound 118] |

Continued, compound first:

| Structure (SMILES) | IC50 (NK3) | IC50 (NK2) | IC50 (NK1) |
| --- | --- | --- | --- |
| O=C(C1CCOC1)N1CCCC2(CCCN(C3CCN(C(=O)c4cc(C(F)(F)F)cc(C(F)(F)F)c4)C(Cc4ccccc4)C3)C2)C1 (single isomer, unassigned) [Compound 210] | 1.78 µM | 1.82 µM | 288 nM |
| O=C(C1CCOC1)N1CCCC2(CCCN(C3CCN(C(=O)c4cc(C(F)(F)F)cc(C(F)(F)F)c4)C(Cc4ccccc4)C3)C2)C1 (single isomer, unassigned) [Compound 211] | ~10 µM | 4.57 µM | 282 nM |
| O=C1CCC(C(=O)N2CCC3(CC2)CCN(C2CCN(C(=O)c4cc(C(F)(F)F)cc(C(F)(F)F)c4)C(Cc4ccccc4)C2)CC3)N1 (stereo not shown) [Compound 4] | 1.29 µM | 1.55 µM | 38.9 nM |
| O=C(c1cc(C(F)(F)F)cc(C(F)(F)F)c1)N1CCC(N2CCC3(CC2)CCN(C(CO)c2cccs2)CC3)CC1Cc1ccccc1 (stereo not shown) [Compound 6] | > 10 µM | 7.76 µM | 129 nM |
| NC(=O)C1(C(=O)N2CCC3(CC2)CCN([C@H]2CCN(C(=O)c4cc(C(F)(F)F)cc(C(F)(F)F)c4)[C@H](Cc4ccccc4)C2)CC3)CC1 [Compound 14] | – | > 10 µM | 31.6 nM |
| CC1(C)C(C(=O)N2CCC3(CC2)CCN([C@H]2CCN(C(=O)c4cc(C(F)(F)F)cc(C(F)(F)F)c4)[C@H](Cc4ccccc4)C2)CC3)C1(C)C [Compound 16] | 8.51 µM | > 10 µM | 191 nM |
| O=C(C1CCCC1)N1CCC2(CC1)CCN([C@@H]1CCN(C(=O)c3cc(C(F)(F)F)cc(C(F)(F)F)c3)[C@H](Cc3ccccc3)C1)CC2 [Compound 18] | 4.68 µM | 1.2 µM | 20.4 nM |
| CC1(C(=O)N2CCC3(CC2)CCN([C@H]2CCN(C(=O)c4cc(C(F)(F)F)cc(C(F)(F)F)c4)[C@H](Cc4ccccc4)C2)CC3)CCCCC1 [Compound 37] | > 10 µM | 8.13 µM | 95.5 nM |
| CC1CCCCC1C(=O)N1CCC2(CC1)CCN([C@@H]1CCN(C(=O)c3cc(C(F)(F)F)cc(C(F)(F)F)c3)[C@H](Cc3ccccc3)C1)CC2 (stereo partly shown) [Compound 39] | 5.37 µM | 4.79 µM | 85.1 nM |
| CC(C)(C)C1CCC(C(=O)N2CCC3(CC2)CCN([C@H]2CCN(C(=O)c4cc(C(F)(F)F)cc(C(F)(F)F)c4)[C@H](Cc4ccccc4)C2)CC3)CC1 (stereo partly shown) [Compound 40] | > 10 µM | > 10 µM | 977 nM |
| O=C(c1cc(C(F)(F)F)cc(C(F)(F)F)c1)N1CC[C@H](N2CCC3(CC2)CCN(S(=O)(=O)c2cc(Cl)sc2Cl)CC3)C[C@H]1Cc1ccccc1 [Compound 97] | ~10 µM | – | 87.1 nM |
| O=C(c1cc(C(F)(F)F)cc(C(F)(F)F)c1)N1CC[C@H](N2CCC3(CC2)CCN(S(=O)(=O)c2ccccc2Cl)CC3)C[C@H]1Cc1ccccc1 [Compound 106] | 0.525 µM | – | 60.3 nM |
| O=C(c1cc(C(F)(F)F)cc(C(F)(F)F)c1)N1CC[C@H](N2CCC3(CC2)CCN(S(=O)(=O)c2cc(Cl)ccc2Cl)CC3)C[C@H]1Cc1ccccc1 [Compound 110] | 5.13 µM | – | 174 nM |
| Cc1cc(C)cc(C(=O)N2CCC(N3CCC4(CCN(C(=O)C5CC5)CC4)CC3)CC2Cc2ccccc2)c1 (stereo not shown) [Compound 153] | – | > 10 µM | 145 nM |
| O=C(C1CC1)N1CCC2(CC1)CCN(C1CCN(C(=O)c3cc(Cl)cc(Cl)c3)C(Cc3ccccc3)C1)CC2 (stereo not shown) [Compound 155] | – | 6.46 µM | 158 nM |
